Results from patent US20190030009A1, “COMPOUNDS AND COMPOSITIONS FOR THE TREATMENT OF CRYPTOSPORIDIOSIS” (Novartis AG, priority 2016, published 2019).

Tests used:
C. parvum = assay: High content imaging assay, C. parvum infected HCT-8 cells; assay type: cell-based; conditions: Cryptosporidium parvum, percentage of infected HCT-8 cells, 48 hours treatment, read-out: Cp HCl IC50
Method: (§1) Human ileocecal colorectal adenocarcinoma cells (HCT-8 [HRT-18] ATCC, CCL-34) were maintained in T-175 flasks (Corning, 431080) in complete growth medium (RPMI-1640 medium (Gibco, 11875) supplemented with 10% heat-inactivated horse serum (Gibco, 26050), 1×MEM non-essential amino acids (Gibco, 11140), 10 mM HEPES (Gibco, 15630), 100 units/mL penicillin, and 100 units/mL streptomycin) at 37° C. and 5% CO2 in a humidified incubator. Cultures were passaged twice weekly using 10 mL of 1×Phosphate-Buffered Saline (PBS) without Ca^2+ and Mg^2+ (Gibco, 20012) for washing and 3-5 mL per T-175 flask of TrypLE Express Enzyme (Gibco, 12604) for dissociation of adherent cells.
Cryptosporidium parvum oocysts purchased from the Sterling Laboratory, University of Arizona (Iowa isolate) were purified from infected calf feces using discontinuous sucrose and cesium chloride centrifugation gradients and stored in PBS solution containing 0.01% Tween 20, 100 units/mL penicillin and 100 units/mL gentamicin.
(§2) Excystation and infection protocols were developed following established methods with some modifications (Gut & Nelson, 1999, Upton et aL, 1995, Bessoff et aL, 2013). Briefly, oocysts were primed in 1 mL of 10 mM hydrochloric acid in 1× Hank's Balanced Salt Solution (HBSS) (Gibco, 14025) for 10 minutes with agitation at 1000 rpm, 37° C. on an Eppendorf thermomixer, then washed twice with 1 mL of room temperature non-acidic 1× HBSS by centrifugation at 13,000 rpm for 3 minutes at 25° C. Primed oocysts were further excysted at a concentration of 1×10^6 oocysts/μL in parasite infection medium consisting of a pre-warmed and pre-gassed 1:1 formulation of Leibovitz's L-15 medium (Gibco, 11415) and UltraCULTURE medium (Lonza, 12-725F) supplemented with 2 mM sodium taurocholate (Sigma, 86339-1), 10% heat-inactivated horse serum, and 200 μM L-ascorbic acid (Sigma, 95210) at 25° C. for 10 minutes. HCT-8 monolayer cells were infected with excysted cryptosporidium at a specified multiplicity of infection (MOI). All dilutions for subsequent assays were performed in parasite infection medium without sodium taurocholate. Pre-excysted oocysts were enumerated microscopically using a C-Chip disposable hemocytometer (NanoEnTek, DHC-N01).
(§3) Compound powders were dissolved in neat DMSO (Fisher, D4121) to 10 mM and stored at 4° C. prior to dilution into source plates. Dilutions were carried out using a Microlab STAR liquid handler (Hamilton) to obtain compound source plates containing the ten-point or eight-point three fold dilutions starting from 10 mM in duplicates. Source plates were stored at 4° C. prior to spotting into assay plates. Before administration, all compound source plates were equilibrated to room temperature. A specified volume of compounds from source plate were spotted to assay plate using an Echo Acoustic liquid handler (LABCYTE, 550) so that the final DMSO concentration was less than 0.5%. Each assay plate a specified number of DMSO-treated negative control wells and a well-studied potent active compound at 100 nM as positive control. As a quality control, all positive and negative-control wells were used to calculate a Z′-value and signal to noise ratio (S:N) for each plate.
Imaging assays were developed following established Cryptosporidium spp labeling and in vitro infection models with some modifications (Bessoff et aL, 2013, Gut & Nelson, 1999). Briefly, 2×10^4 HCT-8 cells per well were seeded into 384-well, flat black clear-bottom OPERA assay plates (Greiner, 789071-G) at 20 μL per well in complete growth medium using a Multidrop Combi liquid handler (ThermoScientific, 5840300) and standard tube dispensing cassette (ThermoScientific, 24072670) and incubated for 24 hours at 37° C. The HCT-8 cells were infected with 10 μL per well of 1×10^4 excysted C. parvum oocysts (host to parasite MOI of 1:0.5) or 10 μL per well of 4×10^4 excysted C. hominis oocysts (MOI 1:2) in parasite infection medium using the Multidrop and incubated at 37° C. […]

Cryptosporidium hominis = assay: Cytopathic effect (CPE) based assay, C. hominis infected HCT-8 cells; conditions: HCT-8 host cell viability (CellTiter-Glo), 48 hours treatment, read-out: Ch CPE EC50
Method: as §1
Cryptosporidium hominis oocysts were purchased from the Tufts University Cummings School of Veterinary Medicine (courtesy of Dr. Saul Tzipori). C. hominis oocysts were purified from infected gnotobiotic piglet feces and stored in PBS solution containing 0.01% Tween-20, 100 units/mL penicillin and 100 units/mL gentamicin. C. parvum and C. hominis oocysts less than three months old from the date of shedding were used in infection experiments.
as §2, §3
Cryptosporidium spp are obligate-intracellular parasites that infect intestinal epithelial cells and the host cell is killed upon parasite egress. […] The loss of epithelial cells is due to both rapid parasite invasion/multiplication/egress and also pro-inflammatory immune response (Adams et al., 1994, Griffiths et al., 1994). We have observed a consistent cytopathic effect (CPE) in HCT-8 cells with C. spp infection the loss of viability of the host cells using CellTiter-Glo reagent.
Confluent HCT-8 cells in T-175 flasks were directly infected with excysted oocysts at an MOI (host to parasite) of 1:2 for C. parvum and 1:4 for C. hominis. […]

Compound | IC50 (C. parvum) [nM] | EC50 (Cryptosporidium hominis) [nM]
CNC(=O)c1ccc(-c2cnn3ccc(N(C)C(=O)c4ccc(C#N)cn4)cc23)cc1 [Example 94] | 123 | 456
CCNC(=O)c1ccc(-c2cnn3ccc(C(=O)N(c4ccc(C#N)cn4)C4CC4)cc23)cc1 [Example 127] | 62 | 71
CCN(C(=O)c1ccn2ncc(-c3ccc(C(=O)NC)cc3)c2c1)c1ccc(C#N)cn1 [Example 90] | 52 | 
CCN(C(=O)c1ccn2ncc(-c3ccc(C(=O)NC)nc3)c2c1)c1ccc(C#N)cn1 [Example 150] | 382 | 
CNC(=O)c1ccc(-c2cnn3ccc(C(=O)N(c4ccc(Cl)cn4)C4CC4)cc23)cc1 [Example 124] | 60 | 
CNC(=O)c1ccc(-c2cnn3ccc(C(=O)N(c4ccc(C(F)(F)F)cn4)C4CCC4)cc23)cc1 [Example 160] | 29 | 
CNC(=O)c1ccc(-c2cnn3ccc(C(=O)N(c4ccc(C#N)c(OC)n4)C4CC4)cc23)cc1 [Example 149] | 32 | 
CCN(C(=O)c1ccn2ncc(-c3ccc(C(=O)NC)cc3)c2c1)c1ccc(C(F)(F)F)cn1 [Example 96] | 24 | 
CNC(=O)c1ccc(-c2cnn3ccc(C(=O)N(c4ccc(C#N)cn4)C4CCC4)cc23)cc1 [Example 112] |  | 351
CNC(=O)c1ccc(-c2cnn3ccc(C(=O)N(NC)c4ccc(C#N)cc4)cc23)cn1 [Example 92] | 94 | 
N#Cc1ccc(N(C(=O)c2ccn3ncc(-c4ccc(C(N)=O)cc4)c3c2)C2CC2)nc1 [Example 120] |  | 276
CNC(=O)c1ccc(-c2cnn3ccc(C(=O)N(c4ccc(C(F)(F)F)cn4)C(C)C)cc23)cc1 [Example 153] | 11 | 70
N#Cc1ccc(N(C(=O)c2ccn3ncc(-c4ccc(C(=O)NC5CC5)cc4)c3c2)C2CC2)nc1 [Example 123] |  | 3150
CC(C)NC(=O)c1ccc(-c2cnn3ccc(C(=O)N(c4ccc(C#N)cn4)C4CC4)cc23)cc1 [Example 121] |  | > 20000
CNC(=O)c1ccc(-c2cnn3ccc(C(=O)N(c4ccc(C#N)cn4)C(C)C)cc23)cc1 [Example 91] |  | 139
N#Cc1ccc(N(C(=O)c2ccn3ncc(-c4ccc(C(=O)NC5COC5)cc4)c3c2)C2CC2)nc1 [Example 131] |  | 4110
